What all share (assay type): ADME, organism-based
Series [1] can be described thus: Apparent volume of distribution in Rattus norvegicus Sprague-Dawley (rat) at 5 mg/kg, iv. More on the design: dose 5 mg/kg, route intravenous. As to conditions: in vivo, read-out: Vd(app).
Series [2] is described as follows: Total clearance in Rattus norvegicus Sprague-Dawley (rat) at 5 mg/kg, iv. Also noted: dose 5 mg/kg, route intravenous. Particulars: in vivo.
Series [3] can be described thus: Apparent elimination half life in Rattus norvegicus Sprague-Dawley (rat) at 50 mg/kg, po. Also noted: dose 50 mg/kg, route oral. Particulars: in vivo, read-out: betat1/2(app) (converted).
Series [4] is described as follows: Apparent elimination half life in Rattus norvegicus Sprague-Dawley (rat) at 5 mg/kg, iv. Also noted: dose 5 mg/kg, route intravenous. Particulars: in vivo, read-out: betat1/2(app) (converted).

Experimental findings from ChEMBL document CHEMBL3045077, “Intravenous pharmacokinetics and oral bioavailability of biochanin A in female rats” (Med Chem Res, 2011) are described below.

A word on the clearance: it is a measure of how efficiently the substance is removed, as volume per time. Higher therefore signals efficient removal.

Each structure is given as a SMILES string.

On to `COc1ccc(-c2coc3cc(O)cc(O)c3c2=O)cc1` [BIOCHANIN], for which the Vd in series [1] came to 10.6 L/kg. The compound further gave a clearance in series [2] of 262 mL/min/kg. The half-life was 13.7 h in series [3] and 1 h in series [4].
